Measurements: ChEMBL document CHEMBL5584315, “Evaluation of Phenazine Derivatives from the Lichen-Associated Streptomyces flavidovirens as Potent Antineuroinflammatory Agents In Vitro and In Vivo” (J Nat Prod, 2024)
Activity calls are given as the source filed them. The calls are words filed in the database; no cut-off is given here.

Experiments:
[1] = Cytotoxicity against mouse BV-2 cells assessed as cell viability at 40 uM measured after 24 hrs by MTT assay relative to control; format: toxicity, cell-based; conditions: read-out: Activity
BV-2 [2] = test: Antineuroinflammatory activity in LPS induced mouse BV-2 cells assessed as inhibition of NO production pretreated for 3 hrs followed by LPS addition and measured after 21 hrs by griess reagent based assay; format: functional, cell-based
Danio rerio [3] = species on record: Danio rerio; test: Inhibition of LPS-induced ROS stress in Zebrafish embryo model assessed as reduction in ROS expression by measuring green fluorescence intensity at 30 uM pretreated for 2 hrs followed by LPS stimulation and measured after 12 hrs by H2DCF-DA staining based fluorescence microscopy analysis; format: functional, organism-based; conditions: time 14.0 hrs
BV-2 [4] = test: Cytotoxicity against mouse BV-2 cells assessed as cell viability at 40 uM measured after 24 hrs by MTT assay; format: toxicity, cell-based; conditions: bv-2, 24 h
[5] = Antioxidant activity assessed as DPPH radical scavenging activity by absorbance based analysis; format: functional
[6] = Inhibition of ROS production in LPS-induced mouse BV-2 cells as decrease in intracellular ROS production at 5 uM preincubated for 3 hrs followed by LPS stimulation and measured after 21 hrs by DCFH-DA staining based microscopic analysis relative to control; format: functional; conditions: time 24 hrs
Danio rerio [7] = species on record: Danio rerio; test: Inhibition of LPS-induced ROS stress in Zebrafish embryo model assessed as reduction in ROS expression by measuring green fluorescence intensity at 15 to 30 uM pretreated for 2 hrs followed by LPS stimulation and measured after 12 hrs by H2DCF-DA staining based fluorescence microscopy analysis; format: functional, organism-based; conditions: dose 15-30 µM, time 14.0 hrs
BV-2 [8] = test: Antineuroinflammatory activity in LPS-induced mouse BV-2 cells assessed as decrease in ratio of nuclear p65 to cytoplasmic p65 at 20 uM preincubated for 3 hrs followed by LPS stimulation and measured after 21 hrs by Western blot analysis relative to control; format: functional; set-up: scale not given: the % may be the effect or the level left
BV-2 [9] = test: Antineuroinflammatory activity in LPS-induced mouse BV-2 cells assessed as suppression of TLR4 expression at 20 uM preincubated for 3 hrs followed by LPS stimulation and measured after 21 hrs by Western blot analysis (reference value: 414+/-14%); format: functional; conditions: time 24 hrs
BV-2 [10] = test: Antineuroinflammatory activity in LPS-induced mouse BV-2 cells assessed as reduction in TNF-alpha expression at 10 uM preincubated for 3 hrs followed by LPS stimulation and measured after 21 hrs by ELISA method relative to control; format: functional; set-up: scale not given: the % may be the effect or the level left; conditions: time 24 hrs
BV-2 [11] = test: Antineuroinflammatory activity in LPS-induced mouse BV-2 cells assessed as upregulation of HO-1 expression at 20 uM preincubated for 3 hrs followed by LPS stimulation and measured after 21 hrs by Western blot analysis relative to control; format: functional; conditions: time 24 hrs
BV-2 [12] = test: Antineuroinflammatory activity in mouse BV-2 cells assessed as reversal of LPS-induced cell thickening measured after 24 hrs by microscope based analysis; format: functional
BV-2 [13] = test: Antineuroinflammatory activity in LPS-induced mouse BV-2 cells assessed as suppression of TAK1 expression at 20 uM preincubated for 3 hrs followed by LPS stimulation and measured after 21 hrs by Western blot analysis (reference value: 225+/-10%); format: functional; conditions: time 24 hrs
BV-2 [14] = test: Antineuroinflammatory activity in LPS-induced mouse BV-2 cells assessed as reduction in PGE2 cytokine production at 20 uM preincubated for 3 hrs followed by LPS stimulation and measured after 21 hrs by ELISA method relative to control; format: functional; set-up: scale not given: the % may be the effect or the level left; conditions: time 24 hrs
BV-2 [15] = test: Antineuroinflammatory activity in LPS-induced mouse BV-2 cells assessed as reduction in PGE2 cytokine production at 5 uM preincubated for 3 hrs followed by LPS stimulation and measured after 21 hrs by ELISA method relative to control; format: functional; set-up: scale not given: the % may be the effect or the level left; conditions: time 24 hrs
BV-2 [16] = test: Antineuroinflammatory activity in LPS-induced mouse BV-2 cells assessed as reduction in TNF-alpha expression at 20 uM preincubated for 3 hrs followed by LPS stimulation and measured after 21 hrs by ELISA method relative to control; format: functional; set-up: scale not given: the % may be the effect or the level left; conditions: time 24 hrs
BV-2 [17] = test: Antineuroinflammatory activity in LPS-induced mouse BV-2 cells assessed as reduction in IL-6 expression at 10 uM preincubated for 3 hrs followed by LPS stimulation and measured after 21 hrs by ELISA method relative to control; format: functional; set-up: scale not given: the % may be the effect or the level left; conditions: time 24 hrs
BV-2 [18] = test: Antineuroinflammatory activity in LPS-induced mouse BV-2 cells assessed as reduction in IL-6 expression at 5 uM preincubated for 3 hrs followed by LPS stimulation and measured after 21 hrs by ELISA method relative to control; format: functional; set-up: scale not given: the % may be the effect or the level left; conditions: time 24 hrs
BV-2 [19] = test: Antineuroinflammatory activity in mouse BV-2 cells assessed as reversal of LPS-induced enlarged cell bodies measured after 24 hrs by microscope based analysis; format: functional
BV-2 [20] = test: Antineuroinflammatory activity in mouse BV-2 cells assessed as reversal of LPS-induced cell shortening measured after 24 hrs by microscope based analysis; format: functional
[21] = Antioxidant activity assessed as ABTS radical scavenging activity by absorbance based analysis; format: functional
BV-2 [22] = test: Antineuroinflammatory activity in LPS-induced mouse BV-2 cells assessed as upregulation of CAT expression at 20 uM preincubated for 3 hrs followed by LPS stimulation and measured after 21 hrs by Western blot analysis relative to control; format: functional; conditions: time 24 hrs
BV-2 [23] = test: Antineuroinflammatory activity in LPS-induced mouse BV-2 cells assessed as upregulation of Nrf2 expression at 20 uM preincubated for 3 hrs followed by LPS stimulation and measured after 21 hrs by Western blot analysis relative to control; format: functional; conditions: time 24 hrs
BV-2 [24] = test: Antineuroinflammatory activity in LPS-induced mouse BV-2 cells assessed as reduction in IL-6 expression at 20 uM preincubated for 3 hrs followed by LPS stimulation and measured after 21 hrs by ELISA method relative to control; format: functional; set-up: scale not given: the % may be the effect or the level left; conditions: time 24 hrs
BV-2 [25] = test: Antineuroinflammatory activity in LPS-induced mouse BV-2 cells assessed as suppression of p-IkappaBalpha/IkappaBalpha ratio at 20 uM preincubated for 3 hrs followed by LPS stimulation and measured after 21 hrs by Western blot analysis (reference value: 123+/-8%); format: functional
BV-2 [26] = test: Antineuroinflammatory activity in LPS-induced mouse BV-2 cells assessed as reduction in TNF-alpha expression at 5 uM preincubated for 3 hrs followed by LPS stimulation and measured after 21 hrs by ELISA method relative to control; format: functional; set-up: scale not given: the % may be the effect or the level left; conditions: time 24 hrs
BV-2 [27] = test: Antineuroinflammatory activity in LPS-induced mouse BV-2 cells assessed as suppression of iNOS expression at 20 uM preincubated for 3 hrs followed by LPS stimulation and measured after 21 hrs by Western blot analysis (reference value: 524 +/-15%); format: functional; conditions: time 24 hrs
BV-2 [28] = test: Antineuroinflammatory activity in LPS induced mouse BV-2 cells assessed as inhibition of NO production at 20 uM pretreated for 3 hrs followed by LPS addition and measured after 21 hrs by griess reagent based assay relative to control; format: functional; set-up: scale not given: the % may be the effect or the level left; conditions: time 24 hrs
BV-2 [29] = test: Inhibition of ROS production in LPS-induced mouse BV-2 cells as decrease in intracellular ROS production preincubated for 3 hrs followed by LPS stimulation and measured after 21 hrs by DCFH-DA staining based microscopic analysis relative to control; format: functional, cell-based; conditions: dose 5-20 µM, time 24.0 hrs
BV-2 [30] = test: Antineuroinflammatory activity in LPS-induced mouse BV-2 cells assessed as downregulation of keap1 expression at 20 uM preincubated for 3 hrs followed by LPS stimulation and measured after 21 hrs by Western blot analysis relative to control; format: functional; conditions: time 24 hrs
[31] = Inhibition of ROS production in LPS-induced mouse BV-2 cells as decrease in intracellular ROS production at 10 uM preincubated for 3 hrs followed by LPS stimulation and measured after 21 hrs by DCFH-DA staining based microscopic analysis relative to control; format: functional; conditions: time 24 hrs
[32] = Inhibition of ROS production in LPS-induced mouse BV-2 cells as decrease in intracellular ROS production at 20 uM preincubated for 3 hrs followed by LPS stimulation and measured after 21 hrs by DCFH-DA staining based microscopic analysis relative to control; format: functional; conditions: time 24 hrs
BV-2 [33] = test: Antineuroinflammatory activity in LPS-induced mouse BV-2 cells assessed as suppression of COX-2 expression at 20 uM preincubated for 3 hrs followed by LPS stimulation and measured after 21 hrs by Western blot analysis (reference value: 172 +/-9%); format: functional; conditions: time 24 hrs
BV-2 [34] = test: Antineuroinflammatory activity in LPS-induced mouse BV-2 cells assessed as reduction in PGE2 cytokine production at 10 uM preincubated for 3 hrs followed by LPS stimulation and measured after 21 hrs by ELISA method relative to control; format: functional; set-up: scale not given: the % may be the effect or the level left; conditions: time 24 hrs

CC(=O)NCC(=O)c1c[nH]c2ccccc12
viability at 24 h, 40 µM [1]: > 98% | IC50 (BV-2 [2]): > 20 µM

O=C1CCCN1Cc1ccco1
viability at 24 h, 40 µM [1]: > 98% | IC50 (BV-2 [2]): > 20 µM

C[C@@H]1C[C@H]2[C@@H]3CCC4=CC(=O)C=C[C@]4(C)[C@@]3(F)[C@@H](O)C[C@]2(C)[C@@]1(O)C(=O)CO
inhibition (Danio rerio [3]): inactive

CSC(=N)N
IC50 (BV-2 [2]): 7.5 µM

COC(=O)c1cccc2nc3ccccc3nc12
viability at 24 h, 40 µM [1]: > 98% | IC50 (BV-2 [2]): 8.6 µM

COC(=O)c1cccc2nc3c([C@@H](C)O)cccc3nc12
viability at 24 h, 40 µM [1]: > 98% | IC50 (BV-2 [2]): 8.5 µM

CC(=O)NCCc1c[nH]c2ccccc12 [NB-ACETYLTRYPTAMINE]
viability at 24 h, 40 µM [1]: > 98% | IC50 (BV-2 [2]): > 20 µM

O=c1c(O)c(-c2ccc(O)c(O)c2)oc2cc(O)cc(O)c12 [QUERCETIN]
IC50 (BV-2 [2]): 9.8 µM

O=C(O)c1ccc[nH]1
viability at 24 h, 40 µM [1]: > 98% | IC50 (BV-2 [2]): 19.5 µM

COC(=O)c1cccc2nc3c([C@H](O)[C@@H](C)C(=O)OC)cccc3nc12
viability at 24 h, 40 µM [1]: > 98% | IC50 (BV-2 [2]): 8.3 µM

O=C1CCCCN1Cc1ccco1
viability at 24 h, 40 µM [1]: > 98% | IC50 (BV-2 [2]): > 20 µM

O=C(O)c1cccc2nc3ccccc3nc12 [PHENAZINE-1-CARBOXYLIC ACID]
viability at 24 h, 40 µM [1]: > 98% | IC50 (BV-2 [2]): 8.4 µM

COC(=O)c1cccc2nc3c([C@H](OC(=O)c4ccc(Br)cc4)[C@@H](C)C(=O)OC)cccc3nc12
Activity (BV-2 [4]): Toxic

CSc1nc(NC/C=C(/C)CO)c2ncn([C@@H]3O[C@H](COC(C)=O)[C@@H](O)[C@H]3O)c2n1
viability at 24 h, 40 µM [1]: > 98% | IC50 (BV-2 [2]): > 20 µM

CC(=O)OC[C@H]1O[C@@H](n2cnc3c(N)ncnc32)[C@H](O)[C@@H]1O
viability at 24 h, 40 µM [1]: > 98% | IC50 (BV-2 [2]): > 20 µM

CC(C)C[C@@H]1NC(=O)[C@H](Cc2c[nH]c3ccccc23)NC1=O
viability at 24 h, 40 µM [1]: > 98% | IC50 (BV-2 [2]): > 20 µM

O=C1N[C@@H](Cc2c[nH]c3ccccc23)C(=O)N2CCC[C@@H]12 [BREVIANAMIDE F]
viability at 24 h, 40 µM [1]: > 98% | IC50 (BV-2 [2]): > 20 µM

COC(=O)c1cccc2nc3c([C@H](O)[C@H](C)C(=O)OC)cccc3nc12
viability at 24 h, 40 µM [1]: > 98% | IC50 (BV-2 [2]): 8.2 µM

COC(=O)c1cc2c([nH]c3ccccc32)c(-c2ccc(CO)o2)n1
Activity (BV-2 [4]): Toxic

COC(=O)[C@H](C)[C@@H](O)c1cccc2nc3c(C(=O)O)cccc3nc12
EC50 [5]: 1900 µM | inhibition at 5 µM [6]: 8% | inhibition (Danio rerio [7]): Active | viability at 24 h, 40 µM [1]: > 98% | Activity (BV-2 [8]): 60% | Activity (BV-2 [9]): 73% | Activity (BV-2 [10]): 33% | Activity (BV-2 [11]): 54% | Activity (BV-2 [12]): Dose-Dependent Effect | Activity (BV-2 [13]): 38% | Activity (BV-2 [14]): 62% | Activity (BV-2 [15]): 34% | Activity (BV-2 [16]): 47% | Activity (BV-2 [17]): 38% | Activity (BV-2 [18]): 20% | Activity (BV-2 [19]): Dose-Dependent Effect | Activity (BV-2 [20]): Dose-Dependent Effect | EC50 [21]: 900 µM | Activity (BV-2 [22]): 10% | Activity (BV-2 [23]): 67% | Activity (BV-2 [24]): 49% | Activity (BV-2 [25]): 36% | Activity (BV-2 [26]): 10% | Activity (BV-2 [27]): 303% | Activity (BV-2 [28]): 70% | inhibition (BV-2 [29]): Dose-Dependent Effect | IC50 (BV-2 [2]): 8 µM | Activity (BV-2 [30]): 36% | inhibition at 10 µM [31]: 30% | inhibition at 20 µM [32]: 66% | Activity (BV-2 [33]): 105% | Activity (BV-2 [34]): 47%

COC(=O)C[C@@H](O)c1cccc2nc3c(C(=O)OC)cccc3nc12
viability at 24 h, 40 µM [1]: > 98% | IC50 (BV-2 [2]): 8.4 µM

CC(=O)NCCC(=O)Nc1cccs1
viability at 24 h, 40 µM [1]: > 98% | IC50 (BV-2 [2]): 17.4 µM
